Measurements as given in ChEMBL document CHEMBL1145312, “Structure-activity relationships of triazolopyridine oxazole p38 inhibitors: identification of candidates for clinical development” (Bioorg Med Chem Lett, 2006).

Tests used:
[1] = biological target: Mitogen-activated protein kinase 14 (Homo sapiens, UniProt Q16539); assay: Inhibition of p38alpha
[2] = system: Monocyte; assay: Inhibition of LPS-induced TNFalpha production in human monocytes; assay type: functional, cell-based
[3] = Hepatocyte microsomal extraction ratio in human; details: hepatic microsomes
[4] = species: Homo sapiens; assay: Inhibition of LPS-induced TNFalpha production in human whole blood; assay type: functional, organism-based

Mitogen-activated protein kinase 14, sequence (Q16539 whole entry): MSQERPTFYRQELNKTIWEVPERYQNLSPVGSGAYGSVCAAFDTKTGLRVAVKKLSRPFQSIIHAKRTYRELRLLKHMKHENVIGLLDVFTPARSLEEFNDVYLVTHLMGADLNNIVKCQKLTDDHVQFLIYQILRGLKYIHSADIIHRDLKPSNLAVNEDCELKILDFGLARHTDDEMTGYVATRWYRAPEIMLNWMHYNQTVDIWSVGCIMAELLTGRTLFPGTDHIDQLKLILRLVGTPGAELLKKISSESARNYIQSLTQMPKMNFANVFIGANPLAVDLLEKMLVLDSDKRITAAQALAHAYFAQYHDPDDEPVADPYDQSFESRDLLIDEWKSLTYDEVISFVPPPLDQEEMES

| SMILES | IC50 [1] [nM] | IC50 [2] [nM] | hepatic extraction ratio [3] | IC50 [4] [nM] |
| --- | --- | --- | --- | --- |
| CC(C)c1nnc2ccc(-c3ocnc3-c3ccc(Cl)cc3Cl)cn12 | 8.3 | 30 | < 0.3 | – |
| CCN(C)c1nnc2ccc(-c3ocnc3-c3ccc(F)cc3)cn12 | 4.7 | 34.6 | – | 1550 |
| CC(C)c1nnc2ccc(-c3ocnc3-c3ccccc3Cl)cn12 | 3 | 57.4 | – | 937 |
| CC(C)Cc1nnc2ccc(-c3ocnc3-c3ccc(F)cc3)cn12 | 8.8 | 70 | – | – |
| CC(C)Nc1nnc2ccc(-c3ocnc3-c3ccc(F)cc3)cn12 | 5.5 | 31.6 | – | – |
| Fc1ccc(-c2ncoc2-c2ccc3nnc(C4CC4)n3c2)c(F)c1 | 3.5 | 45.8 | – | 910 |
| FC(F)c1nnc2ccc(-c3ocnc3-c3ccccc3)cn12 | 544 | – | – | – |
| CC1(c2nnc3ccc(-c4ocnc4-c4cc(F)c(F)cc4F)cn23)CCC1 | 2.5 | 10 | – | 90 |
| c1ccc(-c2ncoc2-c2ccc3nnc(-c4ccno4)n3c2)cc1 | 285 | > 2000 | – | – |
| CCc1nnc2ccc(-c3ocnc3-c3ccc(F)cc3)cn12 | 21.6 | 630 | – | – |
| Fc1ccc(F)c(-c2ncoc2-c2ccc3nnc(C4CCC4)n3c2)c1 | 9.7 | 60 | – | – |
| c1ccc(-c2ncoc2-c2ccc3nnc(C4CCC4)n3c2)cc1 | 16.6 | 69.3 | – | – |
| Fc1cc(F)c(-c2ncoc2-c2ccc3nnc(C4CCC4)n3c2)cc1F | 9.1 | 50 | – | 353 |
| Cc1cccc(-c2ncoc2-c2ccc3nnc(C(C)C)n3c2)c1 | 18.3 | 24.5 | – | – |
| CC(C)c1nnc2ccc(-c3ocnc3-c3cccc(Cl)c3Cl)cn12 | 14.5 | 57.4 | < 0.3 | – |
| CC(C)c1nnc2ccc(-c3ocnc3-c3ccc(F)c(F)c3)cn12 | 22.3 | 49 | – | – |
| COc1ccccc1-c1nnc2ccc(-c3ocnc3-c3ccc(F)cc3)cn12 | 0.4 | 10 | – | 873 |
| CCCNc1nnc2ccc(-c3ocnc3-c3ccc(F)cc3)cn12 | 198 | – | – | – |
| CC(C)c1nnc2ccc(-c3ocnc3-c3cc(F)cc(F)c3F)cn12 | 83.3 | 490 | < 0.3 | – |
| CC(C)c1nnc2ccc(-c3ocnc3-c3ccc(Cl)c(F)c3)cn12 | 43.2 | 266 | – | – |
| CCOc1nnc2ccc(-c3ocnc3-c3ccc(F)cc3)cn12 | 55.5 | 360 | – | – |
| CC(C)c1nnc2ccc(-c3ocnc3-c3ccc(F)c(F)c3F)cn12 | 11.1 | 57.4 | – | – |

More lines, in order of falling IC50 [1], values ahead:

| IC50 [1] [nM] | IC50 [2] [nM] | hepatic extraction ratio [3] | IC50 [4] [nM] | SMILES |
| --- | --- | --- | --- | --- |
| 26.4 | 148 | – | – | CC(C)c1nnc2ccc(-c3ocnc3-c3ccc(Cl)c(Cl)c3)cn12 |
| 25 | 200 | – | 1400 | CC(C)(O)c1nnc2ccc(-c3ocnc3-c3cc(F)ccc3F)cn12 |
| 24.5 | 60 | < 0.3 | – | CC(C)c1nnc2ccc(-c3ocnc3-c3cc(F)c(Cl)cc3F)cn12 |
| 19.9 | > 1000 | – | – | Fc1ccc(-c2ncoc2-c2ccc3nnc(Cc4ccccc4)n3c2)cc1 |
| 17.9 | 470 | – | – | CC(C)Oc1nnc2ccc(-c3ocnc3-c3ccc(F)cc3)cn12 |
| 17.7 | 70 | – | – | CC(C)c1nnc2ccc(-c3ocnc3-c3ccc(Cl)cc3)cn12 |
| 14.6 | 71.1 | < 0.3 | – | CC(C)c1nnc2ccc(-c3ocnc3-c3c(F)cccc3F)cn12 |
| 5.1 | 10 | – | 190 | CC(C)c1nnc2ccc(-c3ocnc3-c3cc(Cl)ccc3F)cn12 |
| 4.1 | 480 | < 0.3 | – | CC(C)c1nnc2ccc(-c3ocnc3-c3cc(F)c(F)c(F)c3)cn12 |
| 1.5 | 10 | – | – | CC1(c2nnc3ccc(-c4ocnc4-c4cc(F)ccc4F)cn23)CCC1 |
| 1.1 | 10 | – | 77 | CC1(c2nnc3ccc(-c4ocnc4-c4ccc(F)cc4F)cn23)CCC1 |
